Patent publication US4510144A, “Methods of imparting immunomodulating activity with dihydrothiazolo purine derivatives” (Newport Pharmaceuticals International, priority 1982, dated 1985)
Like-named read-outs stand apart in the source and are kept apart here.

Tests used:
macrophages = assay: lymphokine (macrophage mitogenic factor, MMF) induced macrophage proliferation in vitro; format: cell-based
From the text: (2) Lymphokine (macrophage mitogenic factor, MMF) induced macrophage proliferation (in vitro
2. NPT 16416 is also capable of augmenting the lymphokine (MMF) induced proliferation of macrophages causing a 70% enhancement of macrophage proliferation.

[1] = test system: lymphocytes from normal volunteers (active E-rosettes); assay: enhancement of active E-rosettes, lymphocytes from normal volunteers in vitro; format: cell-based; conditions: for % E-rosettes (active): control 37
Method: The effects of NPT 16416 on stimulating formation of active rosettes when incubated with lymphocytes in vitro from normal volunteers is described in Table XII. It is important to note that 5×10^-8M concentration of NPT 16416 is capable of producing a 36.5% enhancement of Active E-Rosettes. The enhancement of Active E-Rosettes is biologically important because that fraction of lymphocytes (T-cells) which are the active rosettes are found to be deficient in tumor patients and virus infected individuals. Restoration of this deficiency should benefit the patient.

[2] = test system: Herpes Simplex Virus Type I; assay: inhibition of Herpes Simplex Virus replication; format: cell-based; conditions: read-out: % inhibition of viral growth
[3] = test system: murine spleen cells, Con A induced (T-cells); assay: Con A induced lymphocyte proliferation in mouse spleen cells in vitro; format: cell-based, mouse (Balb/C); conditions: for activity at 0.01 µg/mL / activity at 0.1 µg/mL / activity at 1 µg/mL / activity at 2.5 µg/mL / activity at 5 µg/mL / activity at 25 µg/mL / activity at 50 µg/mL: Mus musculus
From the text: (1) Mitogen-(Lipopolysaccharide, LPS or Con A) induced lymphocyte proliferation using murine spleen cells (in vitro)
1. […] LPS is a mitogen which acts preferentially on B-cells. […] Con A is considered a T-cell mitogen.
1. Balb/C male mice, 7-8 weeks old, are used up to 20-24 weeks of age.
2. The animals are sacrificed by cervical dislocation and the animals' left sides swabbed with 70% ethanol. An incision is made between the lower ribs and pelvis, laterally from front to back, and the skin retracted. Aseptic technique is to be observed from this point on.
3. The spleen is gently removed with sterile forceps. […] When all spleens have been collected and cleaned they are placed in a second petri dish containing 3 ml cold RPMI.
4. Spleen cell suspensions are prepared by gentle mincing of the tissue with a sterile blade and filtering through #100 stainless steel mesh.
6. An aliquot of the above suspension is prepared for cell counting as follows: 0.1 ml of suspension is diluted to 1.0 ml with 3% acetic acid and let stand at room temperature for at least five minutes. The sample is then diluted 1:100 with "Isoton II" (Curtis-Matheson Co.) and counted in a coulter counter.
MURINE SPLENOCYTE STIMULATION WITH CONCANAVALIN A (CON A), LIPOPOLYSACCHARIDE (LPS), AND ALLOGENEIC SPLENOCYTES (LMC).
There is set forth below the standard procedure which should be modified according to the solubility and other properties of the particular compound tested.
Add ~10 ml RPMI to 1.79 g HEPES and vortex until completely dissolved. […] Allow to warm temperature before use.
5. Con A (Calbiochem)--100 mg/ml NaCl injection solution (McGaw), filter, aliquot in 1 ml, and store at -70° C.
8. Tritiated thymidine (^3 H-TdR, Schwartz-Mann, 6 Ci/mM). Remove a slightly larger volume of ^3 H-TdR than needed from vial with a 1 cc syringe and place volume in the cap of a small sterile plastic tube. […] Vortex thoroughly before adding to plates.
1. Animals are sacrificed by cervical dislocation killing one from each group and processing the cells individually before killing the next animal. Swab each animal with 70% ethanol before surgery. […] Use 8 vertical strokes (or enough to break up all tissue) with Teflon-tipped homogenizer. Filter each sample through a 100 mesh screen into a 50 ml tube. […] After all samples have been spun, vortex each briefly and let sit for 1 hour. Vortex each sample ~5 seconds, waiting ~10 seconds between each sample. Let sit 5 minutes, then pipet cell suspension into 5 ml (12×75 mm) tube being careful not to remove any sediment. Remove 50 ul cell suspension using micropipetter, carefully wipe pipet tip with kimwipe and pipet into 20 ml Isoton in Coulter counter vial, rinsing pipet several times in the Isoton. Add 6 drops of CyMet and swirl vial to mix. Use the following Coulter counter settings: Amplification-1, Threshold-10, and Aperture Current-1. Clean counter with Isoterge the morning of experiment and count background before standardizing with CH 0.60 Hematology Controls. After cell counts are obtained, dilute to 6×10^6 cells/ml with supplemented RPMI and aliquot into 3 tubes for the 3 assays.
1. Pipet 100 μl control media (supplemented RPMI) or appropriate dilution of mitogen (starting with lowest concentration) into microtiter plate using Titertek multi-channel pipetter. Place plates in 37° C. CO2 incubator with CO2 set at 0.5 after each plate has been pipetted. Pipet 100 μl responder cells into wells starting with most dilute mitogen concentration. Place plates in incubator as they are filled and after all plates are in incubator, let sit for 10-20 minutes. Wrap plates with plastic wrap, recover with top, replace in incubator, and reset CO2 to ~0.05. Save ~50 ml supplemented RPMI at 4° C. for thymidine dilution. After ~44 hours warm the RPMI to 37° C. in incubator. Dilute tritiated Thymidine 1:100 in warmed RPMI. Use Titertek to add 50 μl Thymidine to each well. Treat plates as above and incubate overnight (~18 hours).

## Oc1ncnc2c1nc1n2CCS1 [NPT 16416, 3-hydroxy-7,8-dihydrothiazolo-[3,2e]-purine]
macrophages
  enhancement of lymphokine (MMF) induced macrophage proliferation: 70%
[1]; 5 × 10^-5 M
  % E-rosettes (active): 43%
[1]; 5 × 10^-7 M
  % E-rosettes (active): 55.5%
[1]; 5 × 10^-8 M
  % E-rosettes (active): 62.5%
[1]; 5 × 10^-9 M
  % E-rosettes (active): 58.5%
[1]; 5 × 10^-10 M
  % E-rosettes (active): 42%
[1]; Homo sapiens, Lymphocyte, 5 × 10^-5 M, read-out: % increase of active E-rosettes
  activation at 50 µM: 10%
[1]; Homo sapiens, Lymphocyte, 5 × 10^-7 M, read-out: % increase of active E-rosettes
  activation at 0.5 µM: 23%
[1]; Homo sapiens, Lymphocyte, 5 × 10^-8 M, read-out: % increase of active E-rosettes
  activation at 0.05 µM: 36.5%
[1]; Homo sapiens, Lymphocyte, 5 × 10^-9 M, read-out: % increase of active E-rosettes
  activation at 0.005 µM: 34%
[1]; Homo sapiens, Lymphocyte, 5 × 10^-10 M, read-out: % increase of active E-rosettes
  activation at 0.0005 µM: 7.6%
[2]; 37.5 μg/ml
  inhibition at 37.5 µg/mL: 33%
[2]; 75 μg/ml
  inhibition at 75 µg/mL: 61%
[2]; 150 μg/ml
  inhibition at 150 µg/mL: 65%
[3]; T-cell, drug 10 ng/ml, Con A 1000 ng/ml, drug/control, read-out: Hi Mitogen D/C Con A
  activity at 0.01 µg/mL: 104%
[3]; T-cell, drug 100 ng/ml, Con A 1000 ng/ml, drug/control, read-out: Hi Mitogen D/C Con A
  activity at 0.1 µg/mL: 102%
[3]; T-cell, drug 1,000 ng/ml, Con A 1000 ng/ml, drug/control, read-out: Hi Mitogen D/C Con A
  activity at 1 µg/mL: 103%
[3]; T-cell, drug 2,500 ng/ml, Con A 1000 ng/ml, drug/control, read-out: Hi Mitogen D/C Con A
  activity at 2.5 µg/mL: 91%
[3]; T-cell, drug 5,000 ng/ml, Con A 1000 ng/ml, drug/control, read-out: Hi Mitogen D/C Con A
  activity at 5 µg/mL: 101%
[3]; T-cell, drug 25,000 ng/ml, Con A 1000 ng/ml, drug/control, read-out: Hi Mitogen D/C Con A
  activity at 25 µg/mL: 100%
[3]; T-cell, drug 50,000 ng/ml, Con A 1000 ng/ml, drug/control, read-out: Hi Mitogen D/C Con A
  activity at 50 µg/mL: 99%
[3]; read-out: Lo Mitogen D/C Con A
  activity at 0.01 µg/mL: 85%
[3]; drug 100 ng/ml, Con A 375 ng/ml, drug/control, read-out: Lo Mitogen D/C Con A
  activity at 0.1 µg/mL: 105%
[3]; drug 1,000 ng/ml, Con A 375 ng/ml, drug/control, read-out: Lo Mitogen D/C Con A
  activity at 1 µg/mL: 93%
[3]; drug 1,000 ng/ml, Con A .375 μg/ml, read-out: Con A D/C (maximum values)
  activity at 1 µg/mL: 118%
[3]; drug 2,500 ng/ml, Con A 375 ng/ml, drug/control, read-out: Lo Mitogen D/C Con A
  activity at 2.5 µg/mL: 98%
[3]; drug 5,000 ng/ml, Con A 375 ng/ml, drug/control, read-out: Lo Mitogen D/C Con A
  activity at 5 µg/mL: 110%
[3]; drug 25,000 ng/ml, Con A 375 ng/ml, drug/control, read-out: Lo Mitogen D/C Con A
  activity at 25 µg/mL: 113%
[3]; drug 25,000 ng/ml, Con A .375 μg/ml, read-out: Con A D/C (maximum values)
  activity at 25 µg/mL: 118%
[3]; drug 50,000 ng/ml, Con A 375 ng/ml, drug/control, read-out: Lo Mitogen D/C Con A
  activity at 50 µg/mL: 103%
[3]; drug 10 ng/ml, Con A 375 ng/ml
  CPM Incorp. + Con A: 17.3 CPM × 10^3
[3]; drug 10 ng/ml, Con A 1000 ng/ml
  CPM Incorp. + Con A: 61.8 CPM × 10^3
[3]; drug 100 ng/ml, Con A 375 ng/ml
  CPM Incorp. + Con A: 20.6 CPM × 10^3
[3]; drug 100 ng/ml, Con A 1000 ng/ml
  CPM Incorp. + Con A: 60.8 CPM × 10^3
[3]; drug 1,000 ng/ml, Con A 375 ng/ml
  CPM Incorp. + Con A: 18.0 CPM × 10^3
[3]; drug 1,000 ng/ml, Con A 1000 ng/ml
  CPM Incorp. + Con A: 60.8 CPM × 10^3
[3]; drug 2,500 ng/ml, Con A 375 ng/ml
  CPM Incorp. + Con A: 19.1 CPM × 10^3
[3]; drug 2,500 ng/ml, Con A 1000 ng/ml
  CPM Incorp. + Con A: 54.0 CPM × 10^3
[3]; drug 5,000 ng/ml, Con A 375 ng/ml
  CPM Incorp. + Con A: 21.5 CPM × 10^3
[3]; drug 5,000 ng/ml, Con A 1000 ng/ml
  CPM Incorp. + Con A: 59.7 CPM × 10^3
[3]; drug 25,000 ng/ml, Con A 375 ng/ml
  CPM Incorp. + Con A: 22.1 CPM × 10^3
[3]; drug 25,000 ng/ml, Con A 1000 ng/ml
  CPM Incorp. + Con A: 59.0 CPM × 10^3
[3]; drug 50,000 ng/ml, Con A 375 ng/ml
  CPM Incorp. + Con A: 20.2 CPM × 10^3
[3]; drug 50,000 ng/ml, Con A 1000 ng/ml
  CPM Incorp. + Con A: 58.6 CPM × 10^3
[3]; in vitro
  effect on Con A induced proliferation (T-cell response), in words: little or no effect
